≈ marks a conversion by molar mass, not a printed value. Read-outs that look alike come from different tables or passages of the source.
What was measured:
[1] = tested on: MRSA NRS 386; test: MIC, Gram-positive panel; assay type: cell-based; conditions: Staphylococcus aureus
Procedure: (§1) Next, the spectrum of antibacterial activity of compounds 144, 148, 149, 151, 155, 158, and 187 was examined against a panel of clinically relevant Gram-positive bacterial pathogens including methicillin-resistant Staphylococcus aureus (MRSA), vancomycin-resistant Staphylococcus aureus (VRSA), vancomycin-resistant Enterococcus faecalis and Enterococcus faecium (VRE), and Streptococcus pneumoniae. Bacterial strains were grown aerobically overnight on tryptone soya agar plates at 37° C. Afterwards, a bacterial solution equivalent to 0.5 McFarland standard was prepared and diluted in cation-adjusted Mueller-Hinton broth (CAMHB) (for staphylococci). Enterococci and Streptococci were diluted in tryptone soya broth (TSB) to achieve a bacterial concentration of about 5×10^5 CFU/mL and seeded in 96-well plates. Compounds and control drugs were added in the first row of 96-well plates and serially diluted with media containing bacteria. Plates were then, incubated aerobically at 37° C. for 18-20 hours (except for S. pneumoniae, which was incubated at 37° C. in presence of 5% CO2 for 18-20 hours).

[2] = tested on: S. aureus ATCC 6538; test: MIC, Gram-positive panel; assay type: cell-based; conditions: Staphylococcus aureus, ATCC6538
Procedure: as §1

[3] = tested on: Methicillin-resistant S. epidermidis NRS101; test: MIC, Gram-positive panel; assay type: cell-based; conditions: Staphylococcus epidermidis
Procedure: as §1

[4] = tested on: Enterococcus faecalis ATCC 51299 (VRE); test: MIC, Gram-positive panel; assay type: cell-based
Procedure: as §1

[5] = tested on: Methicillin-resistant S. pneumoniae ATCC 700677; test: MIC, Gram-positive panel; assay type: cell-based; conditions: Streptococcus pneumoniae, ATCC700677
Procedure: as §1

[6] = tested on: VRSA 12; test: MIC, Gram-positive panel; assay type: cell-based; conditions: Staphylococcus aureus
Procedure: as §1

[7] = tested on: Enterococcus faecium ATCC 700221 (VRE); test: MIC, Gram-positive panel; assay type: cell-based
Procedure: as §1

[8] = tested on: MRSA NRS 123; test: MIC, Gram-positive panel; assay type: cell-based; conditions: Staphylococcus aureus
Procedure: as §1

[9] = tested on: S. pneumoniae ATCC 51916; test: MIC, Gram-positive panel; assay type: cell-based; conditions: Streptococcus pneumoniae, ATCC51916
Procedure: as §1

[10] = tested on: S. aureus NRS 107; test: MIC, Gram-positive panel; assay type: cell-based; conditions: Staphylococcus aureus, NRS107
Procedure: as §1

[11] = tested on: MRSA NRS 385; test: MIC, Gram-positive panel; assay type: cell-based; conditions: Staphylococcus aureus
Procedure: as §1

[12] = tested on: VRSA 10; test: MIC, Gram-positive panel; assay type: cell-based; conditions: Staphylococcus aureus
Procedure: as §1

[13] = tested on: MRSA NRS 119; test: MIC, Gram-positive panel; assay type: cell-based; conditions: Staphylococcus aureus
Procedure: as §1

[14] = tested on: intracellular MRSA USA400 inside murine macrophage (J774) cells; test: Clearance of intracellular MRSA in infected J774 macrophages; assay type: cell-based, Staphylococcus aureus; conditions: 24 hours, J774 infected with MRSA USA400
Procedure: The ability of the compound 148 to reduce the burden of intracellular MRSA was evaluated utilizing previously described methods. Murine macrophage cells (J774) were cultured in Dulbecco's Modified Eagle Medium (DMEM) supplemented with 10% FBS at 37° C. with CO2 (5%). J774 cells were exposed to MRSA USA400 cells at a multiplicity of infection of approximately 10:1. After 1 hour of infection, J774 cells were washed with gentamicin (200 μg/mL) to kill extracellular MRSA. The compounds or vancomycin (at 4×MIC and 8×MIC) were subsequently added to each well (four replicates per test agent). Control cells received DMSO at a concentration equal to that in drug-treated cell samples. After 24 hours-incubation at 37° C. with 5% CO2, the test agents were removed. J774 cells were washed and subsequently lysed using 0.1% Triton-X. The solution was serially diluted in phosphate-buffered saline and transferred to TSA plates in order to determine viable MRSA CFU inside the J774 cells. Plates were incubated at 37° C. for 18-22 hour before counting viable CFU/mL. Statistical significance was assessed with two-way ANOVA, with post hoc Dunnet's multiple comparisons test (P<0.05), utilizing GraphPad Prism 6.0 (GraphPad Software, La Jolla, Calif.).
FIG. 6. Examination of the activity of compounds 148 on the clearance of intracellular MRSA present inside infected murine macrophage (J774) cells. […] Data were analyzed via two-way ANOVA, with post hoc Dunnet's multiple comparisons test (P<0.05), utilizing GraphPad Prism 6.0 (GraphPad Software, La Jolla, Calif.). Asterisks (*) represent significant difference between treatment of J774 cells with compound 148 in comparison to vancomycin.

[15] = tested on: total proteases production in MRSA USA300; test: Inhibition of staphylococcal total proteases production, skimmed milk method; assay type: cell-based, Staphylococcus aureus; conditions: MRSA USA300, 0.25×MIC, untreated = 100%
Procedure: The modified skimmed milk method was utilized to investigate the protease inhibitory activities of BHS compounds as described previously. In brief, overnight culture of MRSA300 in TSB, with and without subinhibitory concentrations of compounds (in triplicate), was centrifuged at 14000×g for 10 minutes. Then, a total volume of 500 μL of culture supernatant was incubated with 1 mL skimmed milk (1.25%) at 37° C. for 1 hour. Afterwards, the OD600 was measured to indicate the degree of clearance of skimmed milk. Higher OD values indicate lower proteolytic activity and greater protease inhibitory activity.
FIG. 4. Influence of BHS compounds on the staphylococcal total protease production. OD600 was measured following overnight culturing of MRSA USA300 in TSB in presence and absence of 0.25×MIC of 148, 149, 155, 158 and vancomycin followed by incubation of supernatants with skim milk for 1 hour at 37° C. The Data are presented as percent production (means±standard deviation). DMSO (the solvent for the compounds that served as a negative control). Vancomycin served as the control antibiotic. The values represent an average (means±standard deviation) of four samples analyzed for each compound/antibiotic. Error bars represent standard deviation values. An asterisk (*) denotes statistical significance (P<0.05) between results for compounds 148, 149, 155, 158 and vancomycin analyzed via unpaired t test ([…]).

[16] = tested on: MRSA USA 400; test: Time-kill assay; assay type: cell-based, Staphylococcus aureus; conditions: 5×MIC; for time required for complete eradication of the bacterial count: MRSA USA 400, 24-hour incubation
Procedure: In order to the mode of killing of methylene lactone compounds, a time kill assay was performed against MRSA USA 400 as described previously. MRSA USA400 cells in logarithmic growth phase (OD600˜1.00) were diluted to 6.03×10^6 colony-forming units (CFU/mL) and exposed to concentrations equivalent to 5×MIC (in triplicate) of 148, 149, 151, 155, 158 and vancomycin in Tryptic soy broth. Aliquots (100 μL) were collected from each treatment after 0, 2, 4, 6, 8, 12, and 24 hours of incubation at 37° C. and subsequently serially diluted in PBS. Bacteria were then transferred to Tryptic soy agar plates and incubated at 37° C. for 18-20 hours before viable CFU/mL was determined (FIG. 1).
DMSO (solvent for the compounds) served as a negative control and vancomycin served as a control drug. The error bars represent standard deviation values obtained from triplicate samples used for each compound/antibiotic studied.

[17] = tested on: Staphylococcus aureus NRS384 (MRSA USA300); test: Initial MIC screening, broth microdilution (CLSI); assay type: cell-based; conditions: for MIC: Staphylococcus aureus NRS384 (MRSA USA300), broth microdilution, visual reading
Procedure: Method: The minimum inhibitory concentration (MIC) of the compounds 1-187, and control antibiotics (vancomycin, linezolid) was determined using the broth microdilution method against methicillin-resistant Staphylococcus aureus (MRSA) USA 300 using the broth microdilution method according to the guidelines outlined by the Clinical and Laboratory Standards Institute (CLSI). MRSA strain was cultivated on Tryptic soy agar plates and let grow for 24 hours at 37° C. under aerobic conditions. Bacterial suspension equivalent to 0.5 McFarland standard was prepared and diluted in cation-adjusted Mueller-Hinton broth (CAMHB) to attain a bacterial concentration of 5×10^5 CFU/ml and seeded in 96-well plates. The desired concentrations of each drug and compound were added in the first row of the 96-well plates and serially diluted to achieve a concentration gradient from 64 μg/ml to 0.5 μg/mL.

SMILES: CN[C@H](CC(C)C)C(=O)N[C@H]1C(=O)N[C@@H](CC(N)=O)C(=O)N[C@H]2C(=O)N[C@H]3C(=O)N[C@H](C(=O)N[C@H](C(=O)O)c4cc(O)cc(O)c4-c4cc3ccc4O)[C@H](O)c3ccc(c(Cl)c3)Oc3cc2cc(c3O[C@@H]2O[C@H](CO)[C@@H](O)[C@H](O)[C@H]2O[C@H]2C[C@](C)(N)[C@H](O)[C@H](C)O2)Oc2ccc(cc2Cl)[C@H]1O [vancomycin, reference compound]
- MIC [1]: 1 µg/mL (≈ 0.69 µM)
- MIC [2]: 1 µg/mL (≈ 0.69 µM)
- MIC ([3]; NRS101): 2 µg/mL (≈ 1.38 µM)
- MIC ([4]; Enterococcus faecalis): 32 µg/mL (≈ 22.1 µM)
- MIC [5]: 2 µg/mL (≈ 1.38 µM)
- MIC ([6]; VRSA): > 64 µg/mL
- MIC ([7]; Enterococcus faecium): > 64 µg/mL
- MIC [8]: 1 µg/mL (≈ 0.69 µM)
- MIC [9]: 2 µg/mL (≈ 1.38 µM)
- MIC [10]: 2 µg/mL (≈ 1.38 µM)
- MIC [11]: 1 µg/mL (≈ 0.69 µM)
- MIC ([12]; VRSA): > 64 µg/mL
- MIC [13]: 1 µg/mL (≈ 0.69 µM)
- reduction of intracellular MRSA ([14]; 4 μg/mL): not able to reduce
- reduction of intracellular MRSA ([14]; 8 μg/mL): not able to reduce
- total protease production [15]: ineffective
- time required for complete eradication of the bacterial count [16]: 12 h

SMILES: C=C(C(=O)OC)C(c1ccc2ccccc2c1)C(O)c1ccc2ccccc2c1 (stereo not shown) [Compound 149]
- MIC ([1]; MRSA NRS 386, read-out: MIC): 1 µg/mL (≈ 2.61 µM)
- MIC ([2]; S. aureus ATCC 6538, read-out: MIC): 1 µg/mL (≈ 2.61 µM)
- MIC ([3]; Methicillin-resistant S. epidermidis NRS101, read-out: MIC): 2 µg/mL (≈ 5.23 µM)
- MIC ([4]; Enterococcus faecalis ATCC 51299 (VRE), read-out: MIC): > 64 µg/mL
- MIC ([5]; Methicillin-resistant S. pneumoniae ATCC 700677, read-out: MIC): 4 µg/mL (≈ 10.5 µM)
- MIC ([6]; VRSA 12, read-out: MIC): 16 µg/mL (≈ 41.8 µM)
- MIC ([7]; Enterococcus faecium ATCC 700221 (VRE), read-out: MIC): > 64 µg/mL
- MIC ([8]; MRSA NRS 123, read-out: MIC): 1 µg/mL (≈ 2.61 µM)
- MIC ([9]; S. pneumoniae ATCC 51916, read-out: MIC): 4 µg/mL (≈ 10.5 µM)
- MIC ([10]; S. aureus NRS 107, read-out: MIC): 1 µg/mL (≈ 2.61 µM)
- MIC ([11]; MRSA NRS 385, read-out: MIC): 1 µg/mL (≈ 2.61 µM)
- MIC ([12]; VRSA 10, read-out: MIC): 8 µg/mL (≈ 20.9 µM)
- MIC ([13]; MRSA NRS 119, read-out: MIC): 1 µg/mL (≈ 2.61 µM)
- potency compared with control antibiotic ([17]; MRSA USA300, Table 1 assay): potency comparable to vancomycin
- MIC [17]: 2 µg/mL (≈ 5.23 µM)
- MIC ([17]; Staphylococcus aureus, read-out: MIC): 1 to 2 µg/mL (≈ 2.61 to 5.23 µM)
- total protease production [15]: 63%
- time required for complete eradication of the bacterial count [16]: not able to completely eradicate it after 24 hours
- reduction in the bacterial count after 6 hours ([16]; MRSA USA 400, after 6 hours): 3 log10
- reduction in the bacterial count after 6 hours (percent) ([16]; MRSA USA 400, after 6 hours): 99.9%

Source: patent publication US20210317099A1, “SAFER, POTENT, AND FAST ACTING ANTIMICROBIAL AGENTS” (Purdue Research Foundation, priority 2020, published 2021)
